# From patent publication US9113629B2, “4-amino-6-(4-substituted-phenyl)-picolinates and 6-amino-2-(4-substituted-phenyl)-pyrimidine-4-carboxylates and their use as herbicides” (DOW AGROSCIENCES LLC, priority 2013, dated 2015)
# Like-named read-outs stand apart in the source and are kept apart here.
# Assays:
# [1] = test system: Key Grass and Sedge Weeds as well as Grass Crops; assay: Post-emergent Test II herbicidal activity (Table 6); type: in vivo; details: post-emergence, 336 h
# Outline: (§1)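 Greenhouse-grown plants at first or second true leaf stage were sprayed post-emergence with compound in acetone/DMSO-based aqueous spray containing crop oil concentrate and surfactant, at 187 L/ha, highest rate plus ½× to 1/16× dilutions. After 14 d, injury was scored visually versus untreated plants, 0 (none) to 100% (complete kill).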
# [2] = test system: Key Broadleaf Weed and Crop Species; assay: Post-emergent Test II herbicidal activity (Table 5); type: in vivo; details: post-emergence, 336 h, 14 days after application; for pest or weed control at 70 g/ha: application rate 70 g ai/ha; for pest or weed control at 140 g/ha: application rate 140 g ai/ha
# Outline: as §1
# [3] = CYPES: yellow nutsedge (Cyperus esculentus), 70 g ai/ha, read-out: Visual Growth Reduction (%) 14 Days After Application, CYPES
# [4] = CYPES: yellow nutsedge (Cyperus esculentus), 140 g ai/ha, read-out: Visual Growth Reduction (%) 14 Days After Application, CYPES
# [5] = DIGSA: crabgrass (Digitaria sanguinalis), 70 g ai/ha, read-out: Visual Growth Reduction (%) 14 Days After Application, DIGSA
# [6] = DIGSA: crabgrass (Digitaria sanguinalis), 140 g ai/ha, read-out: Visual Growth Reduction (%) 14 Days After Application, DIGSA
# [7] = ECHCG: barnyardgrass (Echinochloa crus-galli), 140 g ai/ha, read-out: Visual Growth Reduction (%) 14 Days After Application, ECHCG
# [8] = ORYSA: rice (Oryza sativa), crop, 70 g ai/ha, read-out: Visual Growth Reduction (%) 14 Days After Application, ORYSA
# [9] = ORYSA: rice (Oryza sativa), crop, 140 g ai/ha, read-out: Visual Growth Reduction (%) 14 Days After Application, ORYSA
# [10] = SETFA: giant foxtail (Setaria faberi), 70 g ai/ha, read-out: Visual Growth Reduction (%) 14 Days After Application, SETFA
# [11] = SETFA: giant foxtail (Setaria faberi), 140 g ai/ha, read-out: Visual Growth Reduction (%) 14 Days After Application, SETFA
# [12] = SORVU: grain sorghum (Sorghum vulgare), 70 g ai/ha, read-out: Visual Growth Reduction (%) 14 Days After Application, SORVU
# [13] = SORVU: grain sorghum (Sorghum vulgare), 140 g ai/ha, read-out: Visual Growth Reduction (%) 14 Days After Application, SORVU
# [14] = TRZSS (wheat, Triticum aestivum), crop, 70 g ai/ha, read-out: Visual Growth Reduction (%) 14 Days After Application, TRZSS
# [15] = TRZSS (wheat, Triticum aestivum), crop, 140 g ai/ha, read-out: Visual Growth Reduction (%) 14 Days After Application, TRZSS
# [16] = ZEAMX: maize, corn (Zea mays), crop, 70 g ai/ha, read-out: Visual Growth Reduction (%) 14 Days After Application, ZEAMX
# [17] = ZEAMX: maize, corn (Zea mays), crop, 140 g ai/ha, read-out: Visual Growth Reduction (%) 14 Days After Application, ZEAMX
# [18] = ABUTH: velvetleaf (Abutilon theophrasti), read-out: Visual Growth Reduction (%) 14 Days After Application, ABUTH
# [19] = AMARE: redroot pigweed (Amaranthus retroflexus), read-out: Visual Growth Reduction (%) 14 Days After Application, AMARE
# [20] = BRSNN: oilseed-rape, canola (Brassica napus), read-out: Visual Growth Reduction (%) 14 Days After Application, BRSNN
# [21] = CHEAL: lambsquarters (Chenopodium album), read-out: Visual Growth Reduction (%) 14 Days After Application, CHEAL
# [22] = EPHHL: wild poinsettia (Euphorbia heterophylla), read-out: Visual Growth Reduction (%) 14 Days After Application, EPHHL
# [23] = HELAN: sunflower (Helianthus annuus), read-out: Visual Growth Reduction (%) 14 Days After Application, HELAN
# [24] = VIOTR: wild pansy (Viola tricolor), read-out: Visual Growth Reduction (%) 14 Days After Application, VIOTR
melting point [°C],SMILES,"pest or weed control at 70 g/ha [1, 3] [%]","pest or weed control at 140 g/ha [1, 4] [%]","pest or weed control at 70 g/ha [1, 5] [%]","pest or weed control at 140 g/ha [1, 6] [%]","pest or weed control at 140 g/ha [1, 7] [%]","pest or weed control at 70 g/ha [2, 18] [%]","pest or weed control at 140 g/ha [2, 18] [%]","pest or weed control at 70 g/ha [2, 19] [%]","pest or weed control at 140 g/ha [2, 19] [%]","pest or weed control at 70 g/ha [2, 20] [%]","pest or weed control at 140 g/ha [2, 20] [%]","pest or weed control at 70 g/ha [2, 21] [%]","pest or weed control at 140 g/ha [2, 21] [%]","pest or weed control at 70 g/ha [2, 22] [%]","pest or weed control at 140 g/ha [2, 22] [%]","pest or weed control at 70 g/ha [2, 23] [%]","pest or weed control at 140 g/ha [2, 23] [%]","pest or weed control at 70 g/ha [2, 24] [%]","pest or weed control at 140 g/ha [2, 24] [%]",further results
112 to 114,COC(=O)c1nc(-c2ccc(OC(F)F)c(F)c2)c(F)c(N)c1Cl [Compound 152],60 to 74,95 to 100,45 to 59,75 to 84,85 to 94,85 to 94,85 to 94,85 to 94,85 to 94,85 to 94,85 to 94,85 to 94,85 to 94,95 to 100,95 to 100,75 to 84,85 to 94,0 to 29,0 to 29,"pest or weed control at 70 g/ha [1, 8]: 0 to 29%; pest or weed control at 140 g/ha [1, 9]: 0 to 29%; pest or weed control at 70 g/ha [1, 10]: 0 to 29%; pest or weed control at 140 g/ha [1, 11]: 45 to 59%; pest or weed control at 70 g/ha [1, 12]: 45 to 59%; pest or weed control at 140 g/ha [1, 13]: 45 to 59%; pest or weed control at 70 g/ha [1, 14]: 0 to 29%; pest or weed control at 140 g/ha [1, 15]: 0 to 29%; pest or weed control at 70 g/ha [1, 16]: 95 to 100%; pest or weed control at 140 g/ha [1, 17]: 95 to 100%"
173 to 175,Nc1cc(-c2ccc(Br)c(F)c2F)nc(C(=O)O)c1Cl [Compound 91],95 to 100,95 to 100,85 to 94,85 to 94,95 to 100,85 to 94,95 to 100,95 to 100,95 to 100,75 to 84,85 to 94,85 to 94,85 to 94,95 to 100,95 to 100,85 to 94,85 to 94,95 to 100,95 to 100,"pest or weed control at 70 g/ha ([1]; ECHCG: barnyardgrass (Echinochloa crus-galli), 70 g ai/ha, read-out: Visual Growth Reduction (%) 14 Days After Application, ECHCG): 95 to 100%; pest or weed control at 70 g/ha [1, 8]: 0 to 29%; pest or weed control at 140 g/ha [1, 9]: 0 to 29%; pest or weed control at 70 g/ha [1, 10]: 75 to 84%; pest or weed control at 140 g/ha [1, 11]: 85 to 94%; pest or weed control at 70 g/ha [1, 12]: 75 to 84%; pest or weed control at 140 g/ha [1, 13]: 75 to 84%; pest or weed control at 70 g/ha [1, 14]: 45 to 59%; pest or weed control at 140 g/ha [1, 15]: 45 to 59%; pest or weed control at 70 g/ha [1, 16]: 85 to 94%; pest or weed control at 140 g/ha [1, 17]: 85 to 94%"
113 to 115,Nc1c(F)c(-c2ccc(OC(F)F)c(F)c2F)nc(C(=O)O)c1Cl [Compound 19],,,,,,0 to 29,0 to 29,0 to 29,0 to 29,0 to 29,60 to 74,0 to 29,0 to 29,0 to 29,30 to 44,75 to 84,75 to 84,0 to 29,0 to 29,"pest or weed control at 70 g/ha ([1]; Triticum aestivum, TRZSS (wheat), application rate 70 g ai/ha, read-out: Visual Growth Reduction (%) 14 Days After Application, TRZSS): 0 to 29%; pest or weed control at 140 g/ha ([1]; Triticum aestivum, TRZSS (wheat), application rate 140 g ai/ha, read-out: Visual Growth Reduction (%) 14 Days After Application, TRZSS): 0 to 29%; pest or weed control at 70 g/ha ([1]; CYPES: yellow nutsedge (Cyperus esculentus), application rate 70 g ai/ha, read-out: Visual Growth Reduction (%) 14 Days After Application, CYPES): 0 to 29%; pest or weed control at 140 g/ha ([1]; CYPES: yellow nutsedge (Cyperus esculentus), application rate 140 g ai/ha, read-out: Visual Growth Reduction (%) 14 Days After Application, CYPES): 0 to 29%; pest or weed control at 70 g/ha ([1]; DIGSA: crabgrass (Digitaria sanguinalis), application rate 70 g ai/ha, read-out: Visual Growth Reduction (%) 14 Days After Application, DIGSA): 0 to 29%; pest or weed control at 140 g/ha ([1]; DIGSA: crabgrass (Digitaria sanguinalis), application rate 140 g ai/ha, read-out: Visual Growth Reduction (%) 14 Days After Application, DIGSA): 0 to 29%; pest or weed control at 70 g/ha ([1]; ECHCG: barnyardgrass (Echinochloa crus-galli), application rate 70 g ai/ha, read-out: Visual Growth Reduction (%) 14 Days After Application, ECHCG): 0 to 29%; pest or weed control at 140 g/ha ([1]; ECHCG: barnyardgrass (Echinochloa crus-galli), application rate 140 g ai/ha, read-out: Visual Growth Reduction (%) 14 Days After Application, ECHCG): 0 to 29%; pest or weed control at 70 g/ha ([1]; ORYSA: rice (Oryza sativa), application rate 70 g ai/ha, read-out: Visual Growth Reduction (%) 14 Days After Application, ORYSA): 0 to 29%; pest or weed control at 140 g/ha ([1]; ORYSA: rice (Oryza sativa), application rate 140 g ai/ha, read-out: Visual Growth Reduction (%) 14 Days After Application, ORYSA): 0 to 29%; pest or weed control at 70 g/ha ([1]; SETFA: giant foxtail (Setaria faberi), application rate 70 g ai/ha, read-out: Visual Growth Reduction (%) 14 Days After Application, SETFA): 0 to 29%; pest or weed control at 140 g/ha ([1]; SETFA: giant foxtail (Setaria faberi), application rate 140 g ai/ha, read-out: Visual Growth Reduction (%) 14 Days After Application, SETFA): 0 to 29%; pest or weed control at 70 g/ha ([1]; SORVU: grain sorghum (Sorghum vulgare), application rate 70 g ai/ha, read-out: Visual Growth Reduction (%) 14 Days After Application, SORVU): 0 to 29%; pest or weed control at 140 g/ha ([1]; SORVU: grain sorghum (Sorghum vulgare), application rate 140 g ai/ha, read-out: Visual Growth Reduction (%) 14 Days After Application, SORVU): 0 to 29%; pest or weed control at 70 g/ha ([1]; ZEAMX: maize, corn (Zea mays), application rate 70 g ai/ha, read-out: Visual Growth Reduction (%) 14 Days After Application, ZEAMX): 0 to 29%; pest or weed control at 140 g/ha ([1]; ZEAMX: maize, corn (Zea mays), application rate 140 g ai/ha, read-out: Visual Growth Reduction (%) 14 Days After Application, ZEAMX): 0 to 29%"
